Reference: US20240174634A1, “Aldehyde Dehydrogenase Inhibitors and Their Therapeutic Use” (priority 2020, published 2024)

Assays:
[1] = target: T1, ALDH1A2 (Homo sapiens, UniProt O94788); experiment: Selectivity biochemical assay, NAD(P)H-Glo Detection System
T1 construct: His-tag; made in house; host or cells: E. coli Rosetta (DE3)
T1 sequence (O94788 1-518): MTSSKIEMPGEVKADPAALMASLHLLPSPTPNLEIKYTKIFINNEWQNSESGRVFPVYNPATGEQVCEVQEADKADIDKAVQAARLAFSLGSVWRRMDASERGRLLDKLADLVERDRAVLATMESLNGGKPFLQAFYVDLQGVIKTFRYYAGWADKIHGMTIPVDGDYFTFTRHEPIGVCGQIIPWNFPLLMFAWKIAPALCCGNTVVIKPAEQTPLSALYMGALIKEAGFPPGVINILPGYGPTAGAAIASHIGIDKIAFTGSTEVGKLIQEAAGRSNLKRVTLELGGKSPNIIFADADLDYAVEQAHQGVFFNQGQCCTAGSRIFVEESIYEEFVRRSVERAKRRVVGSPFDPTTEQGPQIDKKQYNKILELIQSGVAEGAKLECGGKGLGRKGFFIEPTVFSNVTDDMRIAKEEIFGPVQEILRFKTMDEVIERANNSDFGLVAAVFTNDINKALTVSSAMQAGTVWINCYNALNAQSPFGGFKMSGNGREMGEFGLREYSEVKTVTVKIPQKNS
Method in brief: (§1)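 Recombinant full-length His-tagged human enzymes expressed in E. coli were pre-incubated 30 min at room temperature with compound (10-point, 3-fold series; top 20 μM for ALDH1A3, 250 μM for ALDH1A1/1A2). Propionaldehyde and NAD were then added at Km; NADH was read by NAD(P)H-Glo luminescence. Buffer: Tris (pH 7.6 for 1A1/1A2, 9.0 for 1A3), 1 mM TCEP, 0.01% Tween-20.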

[2] = target: T2, ALDH1A3 (Homo sapiens, UniProt P47895); experiment: Primary biochemical assay, NAD(P)H-Glo Detection System; parameters: His-tag; made in house; host or cells: E. coli Rosetta (DE3); conditions: 30 min pre-incubation, propionaldehyde and NAD at Km
T2 sequence (P47895 1-512): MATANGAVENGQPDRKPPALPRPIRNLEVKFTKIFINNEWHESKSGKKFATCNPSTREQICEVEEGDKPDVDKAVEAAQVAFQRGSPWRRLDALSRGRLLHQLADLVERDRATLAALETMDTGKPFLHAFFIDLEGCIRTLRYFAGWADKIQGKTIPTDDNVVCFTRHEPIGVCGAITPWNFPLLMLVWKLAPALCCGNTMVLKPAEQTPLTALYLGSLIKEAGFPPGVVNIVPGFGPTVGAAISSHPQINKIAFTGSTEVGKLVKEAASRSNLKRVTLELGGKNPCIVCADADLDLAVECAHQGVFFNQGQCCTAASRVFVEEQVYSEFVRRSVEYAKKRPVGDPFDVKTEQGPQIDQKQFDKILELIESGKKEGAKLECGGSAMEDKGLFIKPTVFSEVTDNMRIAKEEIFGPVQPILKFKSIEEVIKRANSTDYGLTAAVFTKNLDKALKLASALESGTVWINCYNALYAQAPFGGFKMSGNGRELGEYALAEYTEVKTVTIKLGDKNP
Method in brief: as §1

SMILES	IC50 [1] [nM]	IC50 [2] [nM]
O=C1CCc2cc(NC(=O)c3ocnc3-c3cccc(F)c3)ccc2N1 [ALDHI-1019, 4-(3-fluorophenyl)-N-(2-oxo-3,4-dihydro-1H-quinolin-6-yl)oxazole-5-carboxamide]	≥ 100000	100 to 1000
O=C1CCc2cc(OCCN3CCCC3c3ccc(F)c(F)c3)ccc2N1 (stereo not shown) [ALDHI-2039, 6-[2-[2-(3,4-difluorophenyl)pyrrolidin-1-yl]ethoxy]-3,4-dihydro-1H-quinolin-2-one]	1000 to 10000	< 100
O=C1CCc2cc(NC(=O)c3sc(N4CCNCC4)nc3-c3cccc(F)c3)ccc2N1 [ALDHI-1005, 4-(3-fluorophenyl)-N-(2-oxo-3,4-dihydro-1H-quinolin-6-yl)-2-piperazin-1-yl-thiazole-5-carboxamide]	10000 to 100000	< 100
O=C1CCc2cc(OCCN3CCCC3c3cccc(F)c3)ccc2N1 (stereo not shown) [ALDHI-2001, 6-[2-[2-(3-fluorophenyl)pyrrolidin-1-yl]ethoxy]-3,4-dihydro-1H-quinolin-2-one]	100 to 1000	< 100
Cc1ccc(C2CCCN2CCOc2ccc3c(c2)CCC(=O)N3)cc1 (stereo not shown) [ALDHI-2010, 6-[2-[2-(p-tolyl)pyrrolidin-1-yl]ethoxy]-3,4-dihydro-1H-quinolin-2-one]	≥ 100000	< 100
O=C1CSc2cc(OCCN3CCCC3c3ccncc3)ccc2N1 (stereo not shown) [ALDHI-2029, 7-[2-[2-(4-pyridyl)pyrrolidin-1-yl]ethoxy]-4H-1,4-benzothiazin-3-one]	10000 to 100000	100 to 1000
O=C1CCc2cc(NC(=O)c3scnc3-c3ccc(F)cc3)ccc2N1 [ALDHI-1017, 4-(4-fluorophenyl)-N-(2-oxo-1,2,3,4-tetrahydroquinolin-6-yl)thiazole-5-carboxamide]	1000 to 10000	< 100
Cc1ccccc1C1CCCN1CCOc1ccc2c(c1)CCC(=O)N2 (stereo not shown) [ALDHI-2012, 6-[2-[2-(o-tolyl)pyrrolidin-1-yl]ethoxy]-3,4-dihydro-1H-quinolin-2-one]	≥ 100000	100 to 1000
O=C1CCc2cc(OCCN3CCCC3c3ccc(F)cc3)ccc2N1 (stereo not shown) [ALDHI-2003, 6-[2-[2-(4-fluorophenyl)pyrrolidin-1-yl]ethoxy]-3,4-dihydro-1H-quinolin-2-one]	1000 to 10000	< 100
CC1CN(CCOc2ccc3c(c2)CCC(=O)N3)C(c2ccccc2)CO1 (mixture of isomers) [ALDHI-2042, 6-[2-(2-methyl-5-phenyl-morpholin-4-yl)ethoxy]-3,4-dihydro-1H-quinolin-2-one]	100 to 1000	100 to 1000
O=C1CCc2cc(OCCN(CCO)Cc3cccnc3)ccc2N1 [ALDHI-3005, 6-[2-[2-hydroxyethyl(3-pyridylmethyl)amino]ethoxy]-3,4-dihydro-1H-quinolin-2-one]	10000 to 100000	< 100
COc1cccc(C2CCCN2CCOc2ccc3c(c2)CCC(=O)N3)c1 (stereo not shown) [ALDHI-2034, 6-[2-[2-(3-methoxyphenyl)pyrrolidin-1-yl]ethoxy]-3,4-dihydro-1H-quinolin-2-one]	10000 to 100000	100 to 1000
Cc1cccc(-c2ncsc2C(=O)Nc2ccc3c(c2)CCC(=O)N3)c1 [ALDHI-1013, 4-(m-tolyl)-N-(2-oxo-3,4-dihydro-1H-quinolin-6-yl)thiazole-5-carboxamide]	1000 to 10000	1000 to 10000
O=C1CCc2cc(OCCN3CCCC3c3cccc(F)c3)c(F)cc2N1 (stereo not shown) [ALDHI-2050, 7-fluoro-6-[2-[2-(3-fluorophenyl)pyrrolidin-1-yl]ethoxy]-3,4-dihydro-1H-quinolin-2-one]	1000 to 10000	< 100
O=C1COc2cc(NC(=O)c3scnc3-c3cccc(F)c3)ccc2N1 [ALDHI-1016, 4-(3-fluorophenyl)-N-(3-oxo-4H-1,4-benzoxazin-7-yl)thiazole-5-carboxamide]	1000 to 10000	100 to 1000
O=C1CCc2cc(NC(=O)c3scnc3-c3ccccc3F)ccc2N1 [ALDHI-1021, 4-(2-fluorophenyl)-N-(2-oxo-3,4-dihydro-1H-quinolin-6-yl)thiazole-5-carboxamide]	1000 to 10000	< 100

SMILES	IC50 [1] [nM]	IC50 [2] [nM]
O=C1CCc2cc(OCCN3CCCC3c3ccsc3)ccc2N1 (stereo not shown) [ALDHI-2014, 6-[2-[2-(3-thienyl)pyrrolidin-1-yl]ethoxy]-3,4-dihydro-1H-quinolin-2-one]	≥ 100000	< 100
Cc1noc(-c2ccccc2C(=O)Nc2ccc3c(c2)CCC(=O)N3)n1 [ALDHI-1008, 2-(3-methyl-1,2,4-oxadiazol-5-yl)-N-(2-oxo-1,2,3,4-tetrahydroquinolin-6-yl)benzamide]	1000 to 10000	100 to 1000
O=C1CCc2cc(OCCn3ccnc3-c3ccccc3)ccc2N1 [ALDHI-2041, 6-[2-(2-phenylimidazol-1-yl)ethoxy]-3,4-dihydro-1H-quinolin-2-one]	1000 to 10000	100 to 1000
O=C1CCc2cc(NC(=O)c3sc(N4CC(O)C4)nc3-c3cccc(F)c3)ccc2N1 [ALDHI-1004, 4-(3-fluorophenyl)-2-(3-hydroxyazetidin-1-yl)-N-(2-oxo-3,4-dihydro-1H-quinolin-6-yl)thiazole-5-carboxamide]	≥ 100000	< 100
O=C1CSc2cc(OCCN3CCCC3c3cccnc3)ccc2N1 (stereo not shown) [ALDHI-2028, 7-[2-[2-(3-pyridyl)pyrrolidin-1-yl]ethoxy]-4H-1,4-benzothiazin-3-one]	≥ 100000	< 100
C[C@@H](c1ccccc1)N(CCO)CCOc1ccc2c(c1)CCC(=O)N2 [ALDHI-3007, 6-[2-[2-hydroxyethyl-[(1S)-1-phenylethyl]amino]ethoxy]-3,4-dihydro-1H-quinolin-2-one]	1000 to 10000	100 to 1000
CN(CCOc1ccc2c(c1)CCC(=O)N2)C(CO)c1cccc(F)c1 (stereo not shown) [ALDHI-3003, 6-[2-[[1-(3-fluorophenyl)-2-hydroxy-ethyl]-methyl-amino]ethoxy]-3,4-dihydro-1H-quinolin-2-one]	1000 to 10000	100 to 1000
O=C1CCc2cc(NC(=O)c3ncsc3-c3cccc(F)c3)ccc2N1 [ALDHI-1014, 5-(3-fluorophenyl)-N-(2-oxo-3,4-dihydro-1H-quinolin-6-yl)thiazole-4-carboxamide]	10000 to 100000	100 to 1000
O=C1CCc2cc(NC(=O)c3sc(N4CCOCC4)nc3-c3cccc(F)c3)ccc2N1 [ALDHI-1001, 4-(3-fluorophenyl)-2-morpholino-N-(2-oxo-3,4-dihydro-1H-quinolin-6-yl)thiazole-5-carboxamide]	≥ 100000	< 100
O=C1CCc2cc(OCCN3CCCC3c3cccs3)ccc2N1 (stereo not shown) [ALDHI-2013, 6-[2-[2-(2-thienyl)pyrrolidin-1-yl]ethoxy]-3,4-dihydro-1H-quinolin-2-one]	1000 to 10000	< 100
CC1Oc2cc(OCCN3CCCC3c3cccc(F)c3)ccc2NC1=O (stereo not shown) [ALDHI-2044, 7-[2-[2-(3-fluorophenyl)pyrrolidin-1-yl]ethoxy]-2-methyl-4H-1,4-benzoxazin-3-one]	10000 to 100000	< 100
O=C1CSc2cc(OCCN3CCCC3c3ccccn3)ccc2N1 (stereo not shown) [ALDHI-2027, 7-[2-[2-(2-pyridyl)pyrrolidin-1-yl]ethoxy]-4H-1,4-benzothiazin-3-one]	10000 to 100000	100 to 1000
O=C1CCc2cc(NC(=O)c3ncsc3-c3ccsc3)ccc2N1 [ALDHI-1011, N-(2-oxo-3,4-dihydro-1H-quinolin-6-yl)-5-(3-thienyl)thiazole-4-carboxamide]	1000 to 10000	100 to 1000
CC1Cc2cc(OCCN3CCCC3c3cccc(F)c3)ccc2NC1=O (stereo not shown) [ALDHI-2048, 6-[2-[2-(3-fluorophenyl)pyrrolidin-1-yl]ethoxy]-3-methyl-3,4-dihydro-1H-quinolin-2-one]	100 to 1000	< 100
O=C1CCc2cc(NC(=O)c3scnc3-c3cccs3)ccc2N1 [ALDHI-1023, N-(2-oxo-3,4-dihydro-1H-quinolin-6-yl)-4-(2-thienyl)thiazole-5-carboxamide]	100 to 1000	< 100
CN(CCOc1ccc2c(c1)CCC(=O)N2)C(=O)c1cccc(F)c1 [ALDHI-3008, 3-fluoro-N-methyl-N-[2-[(2-oxo-3,4-dihydro-1H-quinolin-6-yl)oxy]ethyl]benzamide]	1000 to 10000	100 to 1000
